Assays:
Myzus persicae = experiment: Myzus test (MYZUPE spray treatment); type: in vivo; conditions: 500 g/ha, after 6 days
Phaedon cochleariae = experiment: Phaedon test (PHAECO spray treatment); conditions: 500 g/ha, after 7 days
Tetranychus urticae = experiment: Tetranychus test, OP-resistant (TETRUR spray treatment); type: in vivo; conditions: after 6 days
Description: (§1) Solvents: 78.0 parts by weight of acetone
After 6 days, the effect in % is determined.
Tetranychus Test, OP-Resistant (TETRUR Spray Treatment)

human ACC1 = type: biochemical; conditions: pairwise, same substance dilution series
[1] = Octanol/water distribution coefficient (log P/D), isocratic HPLC method; type: physicochemical; conditions: pH 7.4; mean (range, n); read-out: logP/D pH 7.4
Source text: The distribution coefficient octanol/water P or D is a key parameter for estimating membrane penetration and permeability. It is defined as the ratio of the equilibrium concentrations of a substance in the two-phase system octanol/water.
[formula] P=partition D=distribution c(octanol)=concentration of the substance in the octanol phase c(water)=concentration of the substance in the aqueous phase
It is usually stated in form of the decadic logarithm (log P or log D).
log P describes the distribution behavior of a substance exclusively present in its neutral form. logD describes the distribution behavior of a substance at a certain pH; depending on the ionisation constant pKa of the substance, some of the substance may be present in ionic form, and some in neutral form.
The log P/D of the active compounds was determined using an isocratic HPLC method (HPLC=high performance liquid chromatography) (literature: OECD Guideline for Testing of Chemicals No. 117). The method is based on the correlation of the HPLC retention time of the test substance to that of reference substances with known distribution coefficients.
The test substance was employed as a 10 mM solution in DMSO (DMSO=dimethyl sulfoxide). 10 μl of this solution were made up to 100 μl with a methanol/water mixture in a ratio of 7+3.
The nine reference substances were dissolved individually in methanol. 100 μl each of the stock solutions were added to an HPLC vial and mixed with 300 μl of water.
A formamide solution was used to determine the hold-up time. To this end, 7 mg of formamide were dissolved in 10 ml of methanol. 100 μl of this stock solution were mixed with 500 μl of methanol and 200 μl of water.
All solutions were chromatographed using a flow rate of 1.00 ml/min.
Injection Protocol: formamide, references, test substance 1, test substance 2, . . . , formamide, references.
Evaluation of the retention times was carried out in a diode array detector (DAD) at 200-400 nm. Via the molecular mass, the identity of the test substance was checked using the downstream mass spectrometer.
The HPLC run was evaluated using the Waters software Masslynx 4.1.
The log P/D values were calculated using the software “POW Determination” (proprietary development).

Spodoptera frugiperda = Spodoptera frugiperda test (SPODFR spray treatment); type: in vivo; conditions: 500 g/ha, after 7 days
Source text: as §1

human plasma protein = experiment: Plasma protein binding by equilibrium dialysis; type: in vitro ADME
Description: (§2) The binding of test substances to plasma proteins is determined by equilibrium dialysis by means of the Ht-dialysis apparatus (96-well) made of Teflon and a semipermeable membrane (regenerated cellulose, MWCO 12-14K). This separates 150 μl each of a plasma side and a buffer side (50 mM phosphate buffer). The test substance is added in 2 concentrations (usually 3 and 0.3 μM) to the plasma side and binds to plasma proteins. The unbound fraction of the test substance passes through the membrane and is distributed on either side until equilibrium is established (after approx. 6-8 h at 37° C.). The substance concentration on the buffer side and the plasma side is determined by LC-MS analysis. For this, both sides are brought by dilution with buffer or plasma to the same matrix (10% plasma) and then precipitated with methanol. The free (unbound) fraction (fu) is calculated from the quotient of the buffer and plasma concentration. Stability tests and recovery tests are run concurrently as controls. In addition, the substance in buffer is dialysed against buffer, to check the nonspecific binding to apparatus and membrane and establishment of equilibrium. Because during incubation the osmotic pressure of the plasma proteins leads to dilution of the plasma (volume shift), this possible error is determined by weighing blank plasma samples and is included in the calculation of fu. Establishment of equilibrium and plasma stability should have a value not lower than 80% and the recovery should be at least 30%. A free fraction of <1% is regarded as high, between 1 and 10% as moderate and >10% as low plasma protein binding.

mouse plasma protein = experiment: Plasma protein binding by equilibrium dialysis; type: in vitro ADME
Description: as §2

plasma proteins of rat = experiment: Plasma protein binding by equilibrium dialysis; type: in vitro ADME
Description: as §2

Meloidogyne incognita = Meloidogyne incognita test (MELGIN); type: in vivo; conditions: 20 ppm, after 14 days
Description: Solvent: 125 parts by weight of acetone
Containers are filled with sand, solution of active compound, Meloidogyne incognita egg/larvae suspension and lettuce seeds. The lettuce seeds germinate and the plants develop. On the roots, galls are formed. After 14 days, the nematicidal effect in % is determined by the formation of galls. 100% means that no galls have been found; 0% means that the number of galls on the treated plants corresponds to the untreated control.

Lucilia cuprina = Lucilia cuprina test (LUCICU); type: in vivo; conditions: 100 ppm, after 2 days
Description: (§3) Solvent: dimethyl sulfoxide
To prepare an appropriate active compound formulation, 10 mg of active compound are mixed with 0.5 ml of dimethyl sulfoxide and the concentrate is diluted with water to the desired concentration. Vessels containing horse meat treated with the active compound preparation of the desired concentration are populated with about 20 Lucilia cuprina larvae.
After 2 days, the kill in % is determined.

Boophilus microplus = Boophilus microplus test (BOOPMI injection); type: in vivo; conditions: 20 μg/animal, after 7 days
Description: as §3
To prepare an appropriate active compound formulation, 10 mg of active compound are mixed with 0.5 ml of solvent and the concentrate is diluted with solvent to the desired concentration. The solution of active compound is injected into the abdomen (Boophilus microplus), and the animals are transferred into dishes and kept in a climatized room. The activity is assessed by […] of fertile eggs.
100% means that none of the ticks has laid any fertile eggs.

| Structure (SMILES) | effect in % (aphids killed) (Myzus persicae) | effect in % (beetle larvae killed) (Phaedon cochleariae) | effect in % (spider mites killed) (Tetranychus urticae; 100 g/ha) | chromatographic logD [1] | effect in % (caterpillars killed) (Spodoptera frugiperda) | also measured |
| --- | --- | --- | --- | --- | --- | --- |
| Cc1cc(C)c(C2=C(O)C3(CCC(F)(F)CC3)OC2=O)c(C)c1 [Example I-2-a-4] | 100% | 100% |  |  |  |  |
| CCc1cc(C)cc(C)c1C1=C(O)C2(CCC(F)(F)CC2)NC1=O [Example I-1-a-11] |  |  | 100% |  |  |  |
| O=C1NC2(CCC(F)(F)CC2)C(O)=C1c1cc(-c2ccc(Cl)cc2)ccc1Cl [Example 1-4, 3-(4,4′-Dichlorobiphenyl-3-yl)-8,8-difluoro-4-hydroxy-1-azaspiro[4.5]dec-3-en-2-one] |  |  |  |  |  | Ratio of IC50s ACC2/ACC1 (respective measurement) (human ACC1): 34.0 |
| Cc1ccc(-c2ccc(Cl)c(F)c2)cc1C1=C(O)C2(CCCCC2)NC1=O [V.1-b, 3-(4′-Chloro-3′-fluoro-4-methylbiphenyl-3-yl)-4-hydroxy-1-azaspiro[4.5]dec-3-en-2-one] |  |  |  | 2.8 |  |  |
| Cc1ccc(-c2ccc(F)cc2)c(C)c1C1=C(O)C2(CCC(F)(F)CC2)OC1=O [Example I-2-a-2] | 100% | 100% |  |  | 100% | effect in % (spider mites killed) (Tetranychus urticae; 500 g/ha): 100% |
| Cc1ccc(-c2ccc(Cl)cc2)cc1C1=C(O)C2(CCCCC2)NC1=O [V.2-b, 3-(4′-Chloro-4-methylbiphenyl-3-yl)-4-hydroxy-1-azaspiro[4.5]dec-3-en-2-one, reference compound] |  |  |  | 2.77 |  | fu [%] (human) (human plasma protein): 0.36%; fu [%] (mouse) (mouse plasma protein): 2.81%; fu [%] (rat) (plasma proteins of rat): 0.71% |
| Cc1ccc(-c2ccc(Cl)cc2)cc1C1=C(O)C2(CCC(F)(F)CC2)NC1=O [Example 1-2, 3-(4′-Chloro-4-methylbiphenyl-3-yl)-8,8-difluoro-4-hydroxy-1-azaspiro[4.5]dec-3-en-2-one] | 100% | 100% | 100% | 1.73 | 100% | fu [%] (human) (human plasma protein): 0.42%; fu [%] (mouse) (mouse plasma protein): 3.49% |
| Cc1ccc(-c2ccc(Cl)cc2)c(C)c1C1=C(O)C2(CCC(F)(F)CC2)NC1=O [Example 1-5, 3-(4′-Chloro-2,4-dimethylbiphenyl-3-yl)-8,8-difluoro-4-hydroxy-1-azaspiro[4.5]dec-3-en-2-one] | 100% |  | 90% |  |  | nematicidal effect in % (formation of galls) (Meloidogyne incognita): 100% |
| Cc1cc(Br)cc(C)c1C1=C(O)C2(CCC(F)(F)CC2)NC1=O [Example I-1-a-5] | 100% | 100% | 100% |  |  |  |
| Cc1ccc(-c2ccc(Cl)c(F)c2)cc1C1=C(O)[C@]2(CC[C@H](C(F)(F)F)CC2)NC1=O [V.1-a, (5s,8s)-3-(4′-Chloro-3′-fluoro-4-methylbiphenyl-3-yl)-4-hydroxy-8-(trifluoromethyl)-1-azaspiro[4.5]dec-3-en-2-one] |  |  |  | 2.55 |  | Ratio of IC50s ACC2/ACC1 (respective measurement) (human ACC1): 8.6 |
| Cc1ccc(-c2ccc(F)cc2)c(C)c1C1=C(O)C2(CC=C(F)CC2)NC1=O (centres unmarked) [Example I-1-a-12] | 100% | 100% |  |  | 100% | effect in % (spider mites killed) (Tetranychus urticae; 500 g/ha): 100% |
| Cc1ccc(-c2ccc(Cl)cc2)cc1C1=C(O)C2(CCC(F)(F)CC2)OC1=O [Example I-2-a-3] | 90% | 100% |  |  | 100% |  |
| Cc1cc(Cl)cc(C)c1C1=C(O)C2(CC=C(F)CC2)NC1=O (centres unmarked) [Example I-1-a-13] | 100% | 100% | 90% |  |  |  |
| Cc1cc(Cl)cc(C)c1C1=C(O)C2(CCC(F)(F)CC2)NC1=O [Example I-1-a-7] | 100% | 100% | 100% |  |  |  |
| Cc1ccc(-c2ccc(Cl)cc2)cc1C1=C(O)[C@]2(CC[C@H](C(F)(F)F)CC2)NC1=O [V.2-a, (5s,8s)-3-(4′-Chloro-4-methylbiphenyl-3-yl)-4-hydroxy-8-(trifluoromethyl)-1-azaspiro[4.5]dec-3-en-2-one] |  |  |  | 2.23 |  | Ratio of IC50s ACC2/ACC1 (respective measurement) (human ACC1): 8.4 |
| Cc1ccc(-c2ccc(F)cc2)c(C)c1C1=C(O)C2(CCC(F)(F)CC2)NC1=O [Example I-1-a-2] | 100% | 100% |  |  | 100% | effect in % (spider mites killed) (Tetranychus urticae; 500 g/ha): 100%; nematicidal effect in % (formation of galls) (Meloidogyne incognita): 100%; kill in % (Lucilia cuprina): 100%; effect in % (fertile eggs) (Boophilus microplus): 80% |
